Laboratory results from the NIST ThermoML archive (doi:10.1016/j.fluid.2016.08.014).

What was measured:
[1] = Liquid, Vibrating tube method
[2] = refractive index (Na D-line) (dimensionless); settings: 101.33 kPa, Liquid, Standard Abbe refractometry

NCCN [ethane-1,2-diamine]
[1]
Settings	mass density [kg/m3]
293.15 K, 200 kPa	898
293.15 K, 2500 kPa	899
293.15 K, 5100 kPa	900
293.15 K, 10000 kPa	903
293.15 K, 15400 kPa	905
293.15 K, 19800 kPa	907
293.15 K, 25100 kPa	909
293.15 K, 30200 kPa	911
298.15 K, 101.33 kPa	895.323
303.15 K, 300 kPa	890
303.15 K, 2500 kPa	891
303.15 K, 5000 kPa	892
303.15 K, 10200 kPa	893
303.15 K, 15000 kPa	896
303.15 K, 20500 kPa	898
303.15 K, 25100 kPa	900
303.15 K, 30100 kPa	902
313.15 K, 300 kPa	880
313.15 K, 2500 kPa	880
313.15 K, 5100 kPa	882
313.15 K, 10000 kPa	884
313.15 K, 15100 kPa	887
313.15 K, 20100 kPa	889
313.15 K, 25400 kPa	892
313.15 K, 30400 kPa	894
323.15 K, 200 kPa	870
323.15 K, 2500 kPa	870
323.15 K, 5100 kPa	872
323.15 K, 10000 kPa	875
323.15 K, 15000 kPa	878
323.15 K, 19900 kPa	880
323.15 K, 25100 kPa	882
323.15 K, 29700 kPa	885
333.15 K, 200 kPa	860
333.15 K, 2500 kPa	861
333.15 K, 5000 kPa	863
333.15 K, 10000 kPa	866
333.15 K, 15000 kPa	868
333.15 K, 20000 kPa	871
333.15 K, 25000 kPa	874
333.15 K, 30000 kPa	876
343.15 K, 200 kPa	850
343.15 K, 2500 kPa	852
343.15 K, 5100 kPa	853
343.15 K, 10000 kPa	856
343.15 K, 15000 kPa	860
343.15 K, 20000 kPa	862
343.15 K, 25100 kPa	865
343.15 K, 30100 kPa	867
353.15 K, 200 kPa	840
353.15 K, 2500 kPa	842
353.15 K, 5000 kPa	844
353.15 K, 10200 kPa	847
353.15 K, 15100 kPa	850
353.15 K, 20000 kPa	853
353.15 K, 25100 kPa	856
353.15 K, 30100 kPa	859
363.15 K, 200 kPa	830
363.15 K, 2600 kPa	832
363.15 K, 5100 kPa	834
363.15 K, 10100 kPa	838
363.15 K, 15000 kPa	840
363.15 K, 20100 kPa	844
363.15 K, 25600 kPa	847
363.15 K, 30000 kPa	850
373.15 K, 200 kPa	820
373.15 K, 2500 kPa	822
373.15 K, 5100 kPa	825
373.15 K, 10100 kPa	828
373.15 K, 15000 kPa	831
373.15 K, 20100 kPa	835
373.15 K, 25100 kPa	838
373.15 K, 30200 kPa	841
383.15 K, 200 kPa	810
383.15 K, 2500 kPa	813
383.15 K, 5200 kPa	815
383.15 K, 10000 kPa	818
383.15 K, 15200 kPa	822
383.15 K, 20500 kPa	826
383.15 K, 25000 kPa	829
383.15 K, 30300 kPa	832

[2]
Settings	refractive index
293.15 K	1.45676
298.15 K	1.45453
